From patent US20250057910A1, “Application of Polypeptide in Preparation of Product for Preventing or Treating Skin Injury Diseases” (Sichuan Gooddoctor Panxi Pharmaceutical Co., Ltd., priority 2021, published 2025)
Ends that are not written are not given here.

Assays:
SD rats = assay: Healing of acute mechanical skin injuries in rats; type: in vivo, rat; settings: for Wound healing rate: rats, acute mechanical injury, topical once a day, polypeptide 8 μg/cm^2, GeneTime 40 IU/cm^2, Mean ± SD, n = 6
Experimental: Experimental animals: SD male rats, SPF grade, 6 weeks old, weighing 180-220 g, from Beijing Vital River Laboratory Animal Technology Co., Ltd.; animal license number: SCXK (Beijing) 2016-0006; and certification number: NO.110011210104746538.
Experimental method: SPF grade SD rats were housed in clean and sterilized cages, and were given water and feeds and padding replacement at regular intervals every day. The cultivation was kept at a temperature of 20-26° C. with a humidity of 40%-70%. The rats were kept for one week to adapt to the environment. According to the random grouping method, the animals were divided into 3 groups: model control group (normal saline), GeneTime group (40 IU/cm^2, recombinant human epidermal growth factor topical solution, from Shenzhen Watsin Genetech Ltd.), and subject polypeptide group (8 μg/cm^2), with 6 animals in each group. After the rats were successfully anesthetized by intraperitoneal injection of 3% pentobarbital sodium, the hair at 1 cm from the expected wound edge was cut off, the expected wound area was first disinfected with iodophor, then locally disinfected with 75% alcohol, and a round full layer of skin wound with a diameter of 1.5 cm was made at the middle of the ear line down to 4 cm below the back, near the cervical side, with the spine as the middle line, as deep as the muscular layer. The same sized rubber ring was used to fix the surrounding skin to form an animal model of acute mechanical injury. After modeling, the rats' wounds were exposed to the environment and fed in individual cages. Upon changing dressings, debridement was first performed with iodophor, and then the wound was washed with a sterile normal saline and wiped to dryness. Rats in each group were given 40 μL of corresponding drug solution by locally applying to the wound once a day periodically. On Days 0, 3, 7, 10 and 14 of administration, the wounds of each group of rats were photographed, the areas of the wounds were calculated with image analysis software (Image J), and the wound healing rates were calculated according to the formula.

[1] = system: RSC96 cells (Rat Schwann cells); assay: Proliferation of RSC96 cells (CCK-8); type: cell-based; settings: 48 hours, 0% serum medium, FIG. 4
Experimental: Experimental method: Rat Schwann cells (RSC96 cells) were adjusted to a concentration of 1.0*10^5 to 5.0*10^5/mL for passaging, and cultured at 37° C. and 5% CO2 for 24-36 hours for the biological activity detection. The cells were digested by trypsin, collected, prepared into a concentration of 5*10^4/mL with a serum-free medium, seeded in a 96-well cell culture plate with 100 μL per well, i.e., […], and cultured overnight at 37° C. and 5% CO2.
The polypeptide was dissolved in PBS solution and prepared into a stock solution with a concentration of 400 ug/ml. The polypeptide stock solution was prepared with 0% serum medium to test concentrations as the experimental groups; and for the control group, the same volume of 0% serum medium without drugs was added. For all the groups, 4 duplicate wells were incubated at 37° C. and 5% CO2 for 48 hours. The CCK-8 was used to detect cell proliferation: the old medium was removed, the serum-free medium containing 10% CCK-8 was added to each well, and absorbances were measured at 450 nm by microplate reader after incubation in an incubator for 2 hours.

[2] = system: STZ-induced diabetic rats; assay: Healing of skin ulcer in streptozotocin (STZ)-induced diabetic rats; type: in vivo, rat; settings: for Wound healing rates of diabetic rats: Mean ± SD, n = 15
Experimental: Experimental animals: After SPF grade male healthy SD rats (weighing 180-200 g) were fed with high-fat and high-sugar diet for 2 weeks and fasted for 6 hours, each rat was rapidly injected with an STZ solution (50 mg kg^−1) intraperitoneally at one time, and 48 hours later, the random blood glucose values were >16.7 mmol/L twice, indicating the successful establishment of type II diabetic rat model. Experimental animals were purchased from Beijing Vital River Laboratory Animal Technology Co., Ltd., with the experimental animal quality certification number of SCXK (Beijing) 2017-0033, and the experimental animal use license number of SCXK (Beijing) 2017-0033.
Experimental method: 90 diabetic rats were selected and randomly divided into 6 groups with 15 rats in each group, namely, model control group (normal saline), high-dose polypeptide group (30 μg/cm^2), medium-dose polypeptide group (10 μg/cm^2), and low-dose polypeptide group (3 μg/cm^2), GeneTime group (40 IU/cm^2, recombinant human epidermal growth factor topical solution, from Shenzhen Watsin Genetech Ltd.), and Kangfuxin Ye group (36 μL/cm^2, Kangfuxinye, from SICHUAN GOODDOCTOR PANXI PHARMACEUTICAL CO., LTD.). After each experimental rat was anesthetized by intraperitoneal injection of 2% pentobarbital sodium (0.2 mL/100 g), a 2 cm^2 full-layer skin defect wound was prepared at each of both sides of the back spine, and a rubber ring with a diameter of 2.3 cm was stitched at the outer edge of the wound. After hemostasis of the wound, local drug therapy at the wound was carried out by group. Except that the Kangfuxin Ye group was administered 2 times/day, other groups were administered once a day, with a dosed volume of 72 μL/wound each time, for 14 consecutive days. After the administration, the wound was covered with a sterile vaseline gauze (5 cm*5 cm), and bandaged with multi-layer sterile gauzes. After the wound surgery, the wound was photographed, and the wound area was recorded as the baseline value (the wound was recorded as Day0). During the administration period, the wound areas were photographed and measured 3 times a week, and the granulation tissue growth and healing of wound in each group were observed every day.

## PAAEPVPL [polypeptide]
SD rats; Day 0 (baseline)
  Wound healing rate: 0.00 ± 0.00%
SD rats; Day 3
  Wound healing rate: −23.77 ± 6.16%
SD rats; Day 7
  Wound healing rate: −10.78 ± 7.90%
SD rats; Day 10
  Wound healing rate: 18.90 ± 17.63%
SD rats; Day 14, 8 μg/cm^2, vs model control
  Wound healing after mechanical skin injury in rats (statement in words): significant promotion of wound healing
SD rats; Day 14
  Wound healing rate: 88.42 ± 4.57 %
[1]
  Proliferation-promoting effect on the RSC96 cell line: significant effect of promoting proliferation
[2]; 3rd day after injury, low-, medium- and high-dose (3, 10, 30 μg/cm^2), vs model control, FIG. 8
  Formation rate of new granulation tissues: promoted the growth rate of new granulation tissue compared to the model control group with significant differences
[2]; Day 0 (baseline), high-dose 30 μg/cm^2, topical once a day
  Wound healing rates of diabetic rats: 0.00 ± 0.00%
[2]; Day 0 (baseline), low-dose 3 μg/cm^2, topical once a day
  Wound healing rates of diabetic rats: 0.00 ± 0.00%
[2]; Day 0 (baseline), medium-dose 10 μg/cm^2, topical once a day
  Wound healing rates of diabetic rats: 0.00 ± 0.00%
[2]; Day 3, high-dose 30 μg/cm^2, topical once a day
  Wound healing rates of diabetic rats: 6.82 ± 19.81%
[2]; Day 3, low-dose 3 μg/cm^2, topical once a day
  Wound healing rates of diabetic rats: 3.05 ± 8.10%
[2]; Day 3, medium-dose 10 μg/cm^2, topical once a day
  Wound healing rates of diabetic rats: 5.04 ± 9.31%
[2]; Day 7, high-dose 30 μg/cm^2, topical once a day
  Wound healing rates of diabetic rats: 62.62 ± 12.24%
[2]; Day 7, low-dose 3 μg/cm^2, topical once a day
  Wound healing rates of diabetic rats: 54.67 ± 18.10%
[2]; Day 7, medium-dose 10 μg/cm^2, topical once a day
  Wound healing rates of diabetic rats: 57.57 ± 10.49%
[2]; Day 10, high-dose 30 μg/cm^2, topical once a day
  Wound healing rates of diabetic rats: 88.49 ± 5.17 %
[2]; Day 10, low-dose 3 μg/cm^2, topical once a day
  Wound healing rates of diabetic rats: 84.05 ± 10.21%
[2]; Day 10, medium-dose 10 μg/cm^2, topical once a day
  Wound healing rates of diabetic rats: 84.26 ± 9.10%
[2]; Day 12, high-dose 30 μg/cm^2, topical once a day
  Wound healing rates of diabetic rats: 98.39 ± 2.39%
[2]; Day 12, low-dose 3 μg/cm^2, topical once a day
  Wound healing rates of diabetic rats: 95.92 ± 5.82%
[2]; Day 12, medium-dose 10 μg/cm^2, topical once a day
  Wound healing rates of diabetic rats: 97.77 ± 3.71%
[2]; Day 14, high-dose 30 μg/cm^2, topical once a day
  Wound healing rates of diabetic rats: 99.85 ± 0.77%
[2]; Day 14, low-dose 3 μg/cm^2, topical once a day
  Wound healing rates of diabetic rats: 99.46 ± 1.46%
[2]; Day 14, medium-dose 10 μg/cm^2, topical once a day
  Wound healing rates of diabetic rats: 99.85 ± 0.84%
[2]; high-dose 30 μg/cm^2, vs model control, Day 10
  Wound healing in diabetic rats (statement in words): significant healing promoting effect
[2]; low and medium doses (3 and 10 μg/cm^2), Day 10, vs model control
  Wound healing in diabetic rats (statement in words): tendency to promote the wound healing
